Like-named read-outs stand apart in the source and are kept apart here.

Series [1] concerns reporter virus pseudotyped with HIV-1JR-FL envelope. The series is classed as cell-based.
Description: (§1) Cultures were incubated for 72 h at 37° C. in DMEM containing 10% fetal bovine serum, 1 mg/mL puromycin, 0.3 mg/mL geneticin, antibiotics, and 0.5% DMSO. Luciferase activity (relative light units or RLU) was measured using BrightGlo reagent (Promega, Madison, Wis.) according to the manufacturer's instructions. Percent inhibition was calculated as: (1−RLU in the presence of inhibitor/RLU in the absence of inhibitor)×100.
(§2) Experimental design and data analysis were based on the combination index (CI) method (Chou et al. 1991; Chou et al. 1984). Compounds were tested individually and in combination at a fixed molar ratio over a range of serial dilutions. […] The mutually exclusive CI formula was used for combinations of CCR5 inhibitors, while the mutually non-exclusive formula was utilized for combinations of inhibitors to distinct targets (Chou et al. 1991). Each test was conducted 4-12 times. Synergy, additivity and antagonism are indicated by CI<1, CI=1 and CI>1, respectively.
The conditions of series [2]: in vivo; cited from earlier work.
Series [3] concerns the target T1, CCR5 (Homo sapiens, UniProt P51681).
T1 construct: host or cells: CEM.NKR (human T cell leukemia line), transduced with CCR5
Kind of series: Competition binding: inhibition of 3H-UK-427,857 binding to CEM.NKR-CCR5 cells.
Excerpt: Cells were washed and then analyzed for radioactivity by scintillation counting.
The cells were washed in PBSA and lysed with 0.5N HCl prior to scintillation counting using a Wallac 1410 instrument.

In series [4] the target is T1, CCR5. Kind of series: Competition binding: inhibition of PRO 140-PE binding to CEM.NKR-CCR5 cells (flow cytometry). The note with it: for Inhibition of PRO 140-PE binding: unlabeled inhibitor pre-incubated 30 min, 5 nM PRO 140-PE. Here is the method: Inhibition was assessed on the basis of both MFI (A) and percent cells gated (B).
Azide was added to block CCR5 internalization during the assay.
On the technique in general: Flow cytometry measures light scatter and fluorescence of single cells or particles in a stream.

Series [5] concerns AD101- and SCH-D-resistant HIV-1 variants. The conditions noted are these: primary CD4+ T-cells; cited from earlier work.
Series [6] concerns reporter virus pseudotyped with HIV-1SF162 envelope. Type of series: cell-based. The note with it: 2nd inhibitor PRO 140, equimolar, 1:10 PRO 140 to zidovudine or nevirapine.
Description: as §1, §2
The test system of series [7] is HIV-1 Env-mediated fusion (HeLa-EnvJRFL with CEM NKR-CCR5 cells). Kind of series: HIV-1 RET cell-cell fusion assay (Part II, combination testing). The series is classed as cell-based. The note with it: Drug 1 SCH-D with Drug 2 TAK-779, molar ratio 1:1.
Description: Briefly, fluorescein octadecyl ester (F18; Molecular Probes, Eugene, Oreg.; 5 mg/ml in ethanol), was diluted 1:800 in DMEM labeling medium (DMEM; Invitrogen, Carlsbad, Calif.) with 10% fetal bovine serum (FBS; HyClone, Logan, Utah) and adjusted to an A506 of 0.34±10%. Octadecyl rhodamine B chloride (R18; Molecular Probes; 10 mg/ml in ethanol) was diluted 1:2050 in labeling medium and adjusted to an A565 of 0.52±10%. Both dyes were further diluted 2-fold by addition to cells in T75-cm^2 flasks. HeLa-EnvJRFL and CEM NKR-CCR5 cells were incubated overnight in F18- and R18-containing culture medium, respectively. […] The centrifugation/wash step was repeated twice, after which the cells were counted and concentrations adjusted to 1.5×10^6 cells/ml. […] The plates were then read on a fluorescence plate reader (Victor^2, Perkin Elmer, Boston, Mass.) using the excitation/emission filter combinations shown in Table 6.
The “% RET” was calculated according to the following formula after subtraction of background (blank) readings: […]
The “% Inhibition” was calculated according to the following formula: […]
Fifty percent inhibition (IC50) values were determined by fitting the inhibition data with a non-linear, four-parameter, variable slope equation (GraphPad Prism, 4.02; GraphPad Software, San Diego, Calif.). […]
The conditions of series [8]: single administration of solution; cited from earlier work.
Another series concerns HIV-1. The conditions noted are these: cited from earlier work.
The subject of series [9] is HIV-1JR-FL envelope-mediated membrane fusion. The series is classed as cell-based.
Excerpt: HIV-1 envelope-mediated membrane fusion was examined using a fluorescence resonance energy transfer (RET) assay (Litwin et al. 1996) with modifications. Briefly, HeLa cells that stably express HIV-1JR-FL gp120/gp41 (Litwin et al. 1996) and CEM.NKR-CCR5 cells (NIH AIDS Research and Reference Reagent Program, (Spenlehauer et al. 2001; Trkola et al. 1999)) were labeled separately overnight with fluorescein octadecyl ester (F18; Molecular Probes, Eugene, Oreg.) and rhodamine octadecyl ester (R18; Molecular Probes), respectively. […] The CD4 mAb Leu3a was used as a control inhibitor, and percent inhibition was calculated as: (RET in the absence of inhibitor−RET in the presence of inhibitor)/(RET in the absence of inhibitor−RET in the presence of Leu3a)×100.
as §2
Twenty-two synergy comparisons (11 compounds×2 CI values) were made based on data generated in the membrane fusion assay, resulting in a corrected P value of 0.0023.
The subject of another series is HIV-1JR-CSF. Kind of series: hu-PBL-SCID mouse model of HIV-1 infection. The series is classed as in vivo, SCID mice. The note with it: multiple doses after steady state viral levels. Here is the method: SCID mice were reconstituted with normal human peripheral blood mononuclear cells and infected 2 weeks later with HIV-1JR-CSF. Multiple doses of PRO 140 were administered following attainment of steady state viral levels. Plasma viral loads pre- and post-injection are indicated.

For series [10], the target named is T1, CCR5. Description: RANTES-induced calcium mobilization in L1.2-CCR5 cells. Type of series: cell-based. The note with it: FIG. 4. An excerpt: Similar results were obtained for […] and MIP-1β.
For orientation: Calcium assays in cells follow changes in intracellular calcium, usually with a dye or a luminescent sensor.

For the next series, the system named is CCR5 lymphocytes. The series is classed as in vivo, human. On the procedure:
At the indicated times post-treatment, blood was collected and analyzed for CCR5 lymphocyte levels. The group mean values and standard deviations are indicated.
Whole blood specimens were combined separately with the indicated phycoerythrin-labeled anti-CCR5 antibodies or with appropriate isotype-control antibodies. Erythocytes were lysed and leukocytes were stabilized using the ImmunoPrep Reagent System (Beckman Coulter), and the cells were analyzed on a TQ Prep™ flow cytometry workstation (Beckman Coulter). Data were expressed as the percent of CCR5 cells relative to all cells gated in the analysis.
For up to 60 days post-treatment, at the times indicated in FIG. 6, blood was collected and analyzed for CCR5 lymphocyte levels.

On the set-up of series [11]: species or system human. The note with it: in vivo. On the procedure: At the indicated times post-treatment, serum was collected, cryopreserved, and analyzed for PRO 140 levels. Data for individual patients are indicated.
Sera were diluted as appropriate and combined with L1.2-CCR5 cells, which are mouse pre-B lymphoma cells engineered to stably express human CCR5. […] Following incubation with test samples, cells were washed and combined with a FITC-labeled sheep antibody against human IgG4 (The Binding Site Limited, Cat. #AF009). Cells were washed again and analyzed by flow cytometry.
Serum was collected post-treatment, cryopreserved, and analyzed for PRO 140 levels. Peak serum concentrations ranged to […] at 0.1 mg/kg and […] at 0.5 mg/kg.

The mark [12] stands for this setting: envelope JRFL, 2nd inhibitor PRO 140, equimolar, 1:10 PRO 140 to zidovudine or nevirapine.
The mark [13] stands for this setting: labelled 1st inhibitor with 2nd inhibitor PRO 140, equimolar.
[14] abbreviates: labelled 1st inhibitor with 2nd inhibitor UK-427,857, equimolar.

T1 sequence (P51681 whole entry): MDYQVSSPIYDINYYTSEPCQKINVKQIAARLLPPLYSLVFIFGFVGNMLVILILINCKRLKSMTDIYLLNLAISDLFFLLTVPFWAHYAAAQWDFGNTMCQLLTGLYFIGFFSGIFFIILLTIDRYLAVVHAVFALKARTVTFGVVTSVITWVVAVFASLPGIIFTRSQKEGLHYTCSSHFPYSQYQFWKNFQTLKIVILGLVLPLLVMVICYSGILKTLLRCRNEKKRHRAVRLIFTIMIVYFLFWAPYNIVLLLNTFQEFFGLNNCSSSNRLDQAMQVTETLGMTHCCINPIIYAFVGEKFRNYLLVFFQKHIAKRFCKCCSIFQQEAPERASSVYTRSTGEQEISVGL

For the molecule `Cc1ccc(-c2ccc3c(c2)C=C(C(=O)Nc2ccc(C[N+](C)(C)C4CCOCC4)cc2)CCC3)cc1.[Cl-]` [TAK-779], the “Inhibition of HIV-1 pseudovirus entry” value in series [1] (compound alone, data not shown) was “Neither TAK-779 nor RANTES mediated consistent, high-level inhibition”. The Oral bioavailability result in [2] was “poor oral bioavailability”.
In the case of `COC[C@@H](c1ccc(C(F)(F)F)cc1)N1CCN(C2(C)CCN(C(=O)c3c(C)ncnc3C)CC2)C[C@@H]1C` [SCH-D, 1-[(4,6-dimethyl-5pyrimidinyl)carbonyl]-4 [4-[2-methoxy-1(R)-4-(trifluoromethyl)phenyl]ethyl-3 (S)-methyl-1-piperazinyl]-4-methylpiperidine], the “Displacement of pre-bound 3H-UK-427,857 by unlabeled compound” value at CCR5 [3] is recorded as “wasn't displaced”. For the same molecule, the CI50 turned out to be 0.47 ± 0.15 in series [1] (setting [12]) and 0.60 ± 0.17 in [6]. In addition, the CI90 in series [1] (setting [12]) turned out to be 0.18 ± 0.04; in series [6], 0.28 ± 0.11. In addition, on CCR5 [4] (FIG. 16B), the “Effect on percent of cells gated for positive binding of PRO 140-PE” value is given as “little impact”. In addition, the “Inhibition of PRO 140-PE binding” value at CCR5 [4] was “modest levels of inhibition”. Besides, the “Sensitivity of SCH-D-resistant HIV-1 variant” value in series [5] is recorded as “resistant”. In addition, the “Mean DR (Drug 2)” value in [7] is on record as 4.31 ± 1.82.
Take `CCO/N=C(\c1ccc(Br)cc1)C1CCN(C2(C)CCN(C(=O)c3c(C)cc[n+]([O-])c3C)CC2)CC1` [SCH-C]: the “Sensitivity of AD101-resistant HIV-1 variant” value in [5] is on record as “resistant”.
Consider `CCCCOCCOc1ccc(-c2ccc3c(c2)/C=C(/C(=O)Nc2ccc(OCc4cncn4CCC)cc2)CCCN3CC(C)C)cc1` [TAK-652], for which the Safety and tolerability result in [8] is “safe and well tolerated”. Besides, the Oral bioavailability result in [2] is listed as “orally bioavailable”. For the same molecule, the “Anti-HIV-1 activity in vitro” value in the series with HIV-1 was “nanomolar range”.
Consider “RANTES: CC-chemokine that serves as a natural ligand for CCR5”, for which, in [9] (setting [13]), the CI50 is on record as 0.59 ± 0.08 and the CI90 was found to be 0.43 ± 0.05. In [9] (setting [14]), this molecule gave a CI50 of 0.48 ± 0.03 and a CI90 of 0.18 ± 0.01.

B1: PRO 140: humanized IgG4,κ anti-CCR5 monoclonal antibody, humanized version of murine mAb PA14 (antibody, chains of the INN, looked up, V domains shown)
VH: EVQLVESGGGLVKPGGSLRLSCAASGYTFSNYWIGWVRQAPGKGLEWIGDIYPGGNYIRNNEKFKDKTTLSADTSKNTAYLQMNSLKTEDTAVYYCGSSFGSNYVFAWFTYWGQGTLVTVSS
VL: DIVMTQSPLSLPVTPGEPASISCRSSQRLLSSYGHTYLHWYLQKPGQSPQLLIYEVSNRFSGVPDRFSGSGSGTDFTLKISRVEAEDVGVYYCSQSTHVPLTFGQGTKVEIK
On to B1, for which the “Displacement of pre-bound 3H-UK-427,857 by unlabeled compound” value in the series with CCR5 [3] (cells pre-incubated with 2 nM 3H-UK-427,857, unlabeled compound 30 min) was “wasn't displaced”. The “Control of viral replication (plasma viral load)” value with HIV-1JR-CSF is “prolonged control of viral replication”. The “Effect on RANTES-induced calcium mobilization versus HIV-1JR-FL replication in PBMC” value in the series with CCR5 [10] is given as “blocks HIV-1 but not chemokine signaling”. For the same molecule, the “Inhibition of PRO 140-PE binding” value with CCR5 [4] is on record as “Complete inhibition”. Besides, the “Overall number of CCR5 lymphocytes (CTC5 binding)” value with CCR5 lymphocytes (in vivo, iv, 2 mg/kg) is on record as “no decrease”. Besides, in the series on CCR5 lymphocytes (single 2 mg/kg intravenous infusion), the “Binding of antibody 2D7 (CCR5 lymphocytes not coated with PRO 140)” value was “significantly decreased”. For the same molecule, the “Dose dependence of serum concentrations” value in series [11] is recorded as “increased proportionally with dose level”.

The record behind these values is patent US20140377259A1, “METHODS FOR INHIBITING HIV-1 REPLICATION INVOLVING THE ADMINISTRATION OF AN ANTI-CCR5 RECEPTOR MONOCLONAL ANTIBODY AND SMALL MOLECULE CCR5 RECEPTOR ANTAGONIST” (CytoDyn Inc., priority 2005, published 2014).
